Legend:
pancreatin = details: 1% (w/v) pancreatin, substrate 5.0 μM, pH 7.5, 37° C.
Protocol: (§1) The stability of propofol prodrugs were evaluated in one or more in vitro systems using a variety of tissue preparations following methods known in the art. Tissues were obtained from commercial sources (e.g., Pel-Freez Biologicals, Rogers, Ark., or GenTest Corporation, Woburn, Mass.). Experimental conditions used for the in vitro studies are described in Table 1 below. Each preparation was incubated with test compound at 37° C. for one hour. Aliquots (50 μL) were removed at 0, 30, and 60 min and quenched with 0.1% trifluoroacetic acid in acetonitrile. Samples were then centrifuged and analyzed by LC/MS/MS (see Example 134 below for method details). Stability of drug conjugates towards specific enzymes (e.g., peptidases, etc.) were also assessed in vitro by incubation with the purified enzyme.
Pancreatin Stability: Stability studies were conducted by incubating conjugate (5 μM) with 1% (w/v) pancreatin (Sigma, P-1625, from porcine pancreas) in 0.025 M Tris buffer containing 0.5 M NaCl (pH 7.5) at 37° C. for 60 min. The reaction was stopped by addition of 2 volumes of methanol. After centrifugation at 14,000 rpm for 10 min, the supernatant was removed and analyzed by LC/MS/MS.

[1] = Caco-2 homogenate S9 stability; type: in vitro ADME; details: Caco-2 homogenate S9 0.5 mg protein per mL, substrate 5.0 μM, 37° C.
Protocol: Caco-2 Homogenate S9 Stability: Caco-2 cells were grown for 21 days prior to harvesting. Culture medium was removed and cell monolayers were rinsed and scraped off into ice-cold 10 mM sodium phosphate/0.15 M potassium chloride, pH 7.4. Cells were lysed by sonication at 4° C. using a probe sonicator. Lysed cells were then transferred into 1.5 mL centrifuge vials and centrifuged at 9000 g for 20 min at 4° C. The resulting supernatant (Caco-2 cell homogenate S9 fraction) was aliquoted into 0.5 mL vials and stored at −80° C. until used.
For stability studies, prodrug (5 μM) was incubated in Caco-2 homogenate S9 fraction (0.5 mg protein per mL) for 60 min at 37° C. Concentrations of intact prodrug and released propofol were determined at zero time and 60 minutes using LC/MS/MS.

[2] = substrate 2.0 μM, 37° C.; for % of Propofol Released from Propofol Prodrugs after 60 min, Human Plasma: no cofactors; for % of Propofol Released from Propofol Prodrugs after 60 min, Human Liver S9 (0.5 mg/mL): NADPH
Protocol: as §1

[3] = oral dosing in rats (Raoof et al. 1996); cited from earlier work

CC(C)c1cccc(C(C)C)c1OC(=O)OC(C)C(NC(=O)CN)C(=O)O (stereo not shown) [(10), H-Gly-Thr(γ-OC(O)OPropofol)-OH]
% of Propofol Released from Propofol Prodrugs after 60 min, Pancreatin (pancreatin): 43% | % of Propofol Released from Propofol Prodrugs after 60 min, Caco-2 S9 [1]: 30% | % of Propofol Released from Propofol Prodrugs after 60 min, Human Plasma [2]: 2% | % of Propofol Released from Propofol Prodrugs after 60 min, Human Liver S9 (0.5 mg/mL) [2]: 2%

CC(C)c1cccc(C(C)C)c1OC(=O)OC(C)C(NC(=O)C(N)CCCCN)C(=O)O.Cl.Cl (stereo not shown) [(18), H-Lys-Thr(γ-OC(O)OPropofol)-OH Bis-Hydrochloride]
% of Propofol Released from Propofol Prodrugs after 60 min, Pancreatin (pancreatin): 1% | % of Propofol Released from Propofol Prodrugs after 60 min, Caco-2 S9 [1]: 33% | % of Propofol Released from Propofol Prodrugs after 60 min, Human Plasma [2]: 12% | % of Propofol Released from Propofol Prodrugs after 60 min, Human Liver S9 (0.5 mg/mL) [2]: 32%

CC(C)c1cccc(C(C)C)c1OC(=O)OC(C)C(NC(=O)C(N)CCCN=C(N)N)C(=O)O.Cl.Cl.Cl (stereo not shown) [(23), H-Arp-Thr(γ-OC(O)OPropofol)-OH Tris-Hydrochloride]
% of Propofol Released from Propofol Prodrugs after 60 min, Pancreatin (pancreatin): 4% | % of Propofol Released from Propofol Prodrugs after 60 min, Caco-2 S9 [1]: 100% | % of Propofol Released from Propofol Prodrugs after 60 min, Human Plasma [2]: 25% | % of Propofol Released from Propofol Prodrugs after 60 min, Human Liver S9 (0.5 mg/mL) [2]: 93%

CC(C)c1cccc(C(C)C)c1OC(=O)OC(C)C(NC(=O)C(N)CN)C(=O)O.Cl.Cl (stereo not shown) [(24), H-Dap-Thr(γ-OC(O)OPropofol)-OH Bis-Hydrochloride]
% of Propofol Released from Propofol Prodrugs after 60 min, Pancreatin (pancreatin): 0% | % of Propofol Released from Propofol Prodrugs after 60 min, Caco-2 S9 [1]: 21% | % of Propofol Released from Propofol Prodrugs after 60 min, Human Plasma [2]: 0% | % of Propofol Released from Propofol Prodrugs after 60 min, Human Liver S9 (0.5 mg/mL) [2]: 1%

CC(C)c1cccc(C(C)C)c1OC(=O)OC(C)C(NC(=O)C(N)Cc1cnc[nH]1)C(=O)O.Cl.Cl (stereo not shown) [(25), H-His-Thr(γ-OC(O)OPropofol)-OH Bis-Hydrochloride]
% of Propofol Released from Propofol Prodrugs after 60 min, Pancreatin (pancreatin): 0% | % of Propofol Released from Propofol Prodrugs after 60 min, Caco-2 S9 [1]: 52% | % of Propofol Released from Propofol Prodrugs after 60 min, Human Plasma [2]: 0% | % of Propofol Released from Propofol Prodrugs after 60 min, Human Liver S9 (0.5 mg/mL) [2]: 8%

CC(C)CC(N)C(=O)NC(C(=O)O)C(C)OC(=O)Oc1c(C(C)C)cccc1C(C)C.Cl (stereo not shown) [(26), H-Leu-Thr(γ-OC(O)OPropofol)-OH Hydrochloride]
% of Propofol Released from Propofol Prodrugs after 60 min, Pancreatin (pancreatin): 30% | % of Propofol Released from Propofol Prodrugs after 60 min, Caco-2 S9 [1]: 93% | % of Propofol Released from Propofol Prodrugs after 60 min, Human Plasma [2]: 0% | % of Propofol Released from Propofol Prodrugs after 60 min, Human Liver S9 (0.5 mg/mL) [2]: 37%

CSCCC(N)C(=O)NC(C(=O)O)C(C)OC(=O)Oc1c(C(C)C)cccc1C(C)C.Cl (stereo not shown) [(27), H-Met-Thr(γ-OC(O)OPropofol)-OH Hydrochloride]
% of Propofol Released from Propofol Prodrugs after 60 min, Pancreatin (pancreatin): 0% | % of Propofol Released from Propofol Prodrugs after 60 min, Caco-2 S9 [1]: 20% | % of Propofol Released from Propofol Prodrugs after 60 min, Human Plasma [2]: 0% | % of Propofol Released from Propofol Prodrugs after 60 min, Human Liver S9 (0.5 mg/mL) [2]: 0%

CC(C)c1cccc(C(C)C)c1OC(=O)OC(C)C(NC(=O)C(N)CCCN)C(=O)O.Cl.Cl (stereo not shown) [(28), H-Orn-Thr(γ-OC(O)OPropofol)-OH Bis-Hydrochloride]
% of Propofol Released from Propofol Prodrugs after 60 min, Pancreatin (pancreatin): 0% | % of Propofol Released from Propofol Prodrugs after 60 min, Caco-2 S9 [1]: 54% | % of Propofol Released from Propofol Prodrugs after 60 min, Human Plasma [2]: 2% | % of Propofol Released from Propofol Prodrugs after 60 min, Human Liver S9 (0.5 mg/mL) [2]: 11%

CC(C)c1cccc(C(C)C)c1O [propofol, 2,6-diisopropylphenol]
Share of the administered drug that undergoes first pass metabolism [3]: approximately 90%

H-Ala-Thr(γ-OC(O)OPropofol)-OH Hydrochloride [(16)]
% of Propofol Released from Propofol Prodrugs after 60 min, Caco-2 S9 [1]: 33%

Reference: patent publication US7550506B2, “Amino acid derived prodrugs of propofol, compositions and uses thereof” (XenoPort, Inc., priority 2004, dated 2009)
